According to patent US20090105349A1, “ANDROGEN MODULATORS” (WARNER-LAMBERT COMPANY LLC, priority 2004, published 2009):

Tests used:
[1] = target: T1, androgen receptor in MDA-MB453-MMTV clone 54-19 cells (Homo sapiens, UniProt P10275); assay: AR antagonist cell assay (MMTV-luciferase reporter); type: cell-based; details: read-out: AR Cell IC50; MDA-MB453-MMTV clone 54-19, inhibition of DHT induced luciferase, 17 hr; mean of multiple tests
T1 sequence (P10275 1-920 Q868H): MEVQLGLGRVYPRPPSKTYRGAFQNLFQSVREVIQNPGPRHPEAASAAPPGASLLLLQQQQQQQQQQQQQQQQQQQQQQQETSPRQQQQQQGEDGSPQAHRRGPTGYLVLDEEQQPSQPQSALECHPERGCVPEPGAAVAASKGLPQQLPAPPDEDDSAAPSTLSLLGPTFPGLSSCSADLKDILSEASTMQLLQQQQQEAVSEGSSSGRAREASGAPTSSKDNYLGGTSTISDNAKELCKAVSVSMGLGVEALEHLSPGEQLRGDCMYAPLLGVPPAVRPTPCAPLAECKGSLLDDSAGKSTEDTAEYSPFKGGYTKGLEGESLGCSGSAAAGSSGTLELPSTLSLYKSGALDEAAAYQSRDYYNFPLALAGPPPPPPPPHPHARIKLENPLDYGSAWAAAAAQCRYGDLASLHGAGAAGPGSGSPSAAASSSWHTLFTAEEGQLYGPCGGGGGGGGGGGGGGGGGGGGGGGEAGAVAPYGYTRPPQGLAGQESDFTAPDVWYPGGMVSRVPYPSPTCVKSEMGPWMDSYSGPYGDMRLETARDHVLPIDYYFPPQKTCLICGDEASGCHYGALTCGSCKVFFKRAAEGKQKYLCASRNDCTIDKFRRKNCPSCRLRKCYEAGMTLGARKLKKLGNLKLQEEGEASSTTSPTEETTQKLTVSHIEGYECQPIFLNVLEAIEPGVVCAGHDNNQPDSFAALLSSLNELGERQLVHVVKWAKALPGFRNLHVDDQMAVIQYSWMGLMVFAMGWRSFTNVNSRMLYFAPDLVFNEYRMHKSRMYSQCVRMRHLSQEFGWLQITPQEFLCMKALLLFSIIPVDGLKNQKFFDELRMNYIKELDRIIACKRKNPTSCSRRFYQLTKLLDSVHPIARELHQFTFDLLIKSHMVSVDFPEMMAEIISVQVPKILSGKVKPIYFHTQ

[2] = system: male C3H/HeN mice (telogen to anagen conversion); type: in vivo; details: mouse, in vivo
Description: While this model is a significant improvement over the telogen conversion assay as a model for human baldness, it suffers from a number of practical disadvantages. The macaques are expensive, relatively rare, labor intensive to maintain, and require long wash out periods between testing. […] Thus, the model relates to a modification of the existing telogen conversion assay. Male C3H/HeN mice approximately 7 weeks old are utilized. These animals are also uniformly in telogen, like their female counterparts. However, once shaven, the androgens inherently present in these male mice inhibit the conversion of the hair follicles to the anagen phase. An anti-androgen will block this androgenic effect and the follicles will convert to anagen, like their female counterparts.
The compounds shown below in Table IV were submitted for further testing utilizing the modified telogen conversion assay, described above. The testing was carried out in the following manner.
Male C3H/HeN mice, 6 to 7 weeks old (Charles River Laboratories, Raleigh, N.C.) were used for the study. Fur was clipped from the dorsal region of the mice prior to initiation of the study. Only mice with pink skin, a visual indication of the telogen phase, were selected for inclusion in the study.
A second group of animals received only the vehicle to serve as a control. Treatments were applied twice daily for 4 weeks.
The hair growth response was quantified by recording, for each animal, the day on which signs of hair growth first appeared over the treated area. The first sign of anagen was the darkening of skin color as melanocytes in the follicles started to synthesize melanin in preparation for the production of pigmented hairs. […] The day on which anagen was initiated in 50% of the test animals for both the treatment group and the vehicle group is reported below in Table IV.

`CSc1ccccc1Oc1ccc(C#N)cc1Cl` [Example 5, 3-Chloro-4-(2-methylsulfanyl-phenoxy)-benzonitrile] was tested, and the IC50 [1] was 48 nM and the “Anagen-Trx (day on which anagen was initiated in 50% of the test animals)” value [2] was greater than 35 days.
